From PubChem BioAssay AID1208 (EPA DSSTox, 2008)
Calls of active or inactive are those of the source.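 The calls were made as follows: active = at least one rat sex group has a carcinogenic potency value and tumor site recorded; inconclusive = only rat studies were judged inadequate by the national testing program; inactive = no potency or tumor site, with negative rat experiments.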

Tested on: rat chronic carcinogenicity bioassay, TD50
Assay: DSSTox (CPDBAS) Carcinogenic Potency Database Summary Rat Bioassay Results
Settings: for Potency: active compounds read low; for outcome: TD50_Rat_Note: no positive results
Outline: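 Chronic long-term rat cancer bioassays from literature and NCI/NTP, taking the most positive result per sex. TD50 in mmol converted to a 1–100 Activity Score from log10(1/TD50). Mixtures lacking TD50 scored 50.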

[1] = TargetSites_Rat_Female: no positive results
[2] = TargetSites_Rat_Female: mammary gland

## C[C@@H]1CC2(O[C@@H]2C)C(=O)O[C@@H]2CCN(C)C/C=C(/COC(=O)[C@]1(C)O)C2=O (stereo partly drawn)
TD50_Rat_Note: TD50 is harmonic mean of more than one positive test, TargetSites_Rat_Female: liver, vascular system
  Potency: 0.922 mg/kg/day

## OCC(O)CCl (stereo not drawn)
[1]
  outcome: inactive; no positive results

## CC(=O)Nc1ccc(O)cc1
TD50_Rat_Note: TD50 is harmonic mean of more than one positive test, TargetSites_Rat_Female: liver, urinary bladder
  Potency: 495 mg/kg/day

## O=c1c(O)c(-c2ccc(O)cc2)oc2cc(O)cc(O)c12
[1]
  outcome: inactive; no positive results

## O=C(O)c1ccccc1-c1c2cc(I)c(=O)c(I)c-2oc2c(I)c(O)c(I)cc12
[1]
  outcome: inactive; no positive results

## CCCN(CCC)N=O
TargetSites_Rat_Female: esophagus, liver, nasal cavity
  Potency: 0.186 mg/kg/day

## C=Cc1cccc(C)c1
[1]
  outcome: inactive; no positive results

## Nc1nnc(-c2ccc([N+](=O)[O-])o2)o1
TargetSites_Rat_Female: kidney, lung, mammary gland, stomach
  Potency: 3.67 mg/kg/day

## Nc1ncc([N+](=O)[O-])s1
TargetSites_Rat_Female: kidney, lung, mammary gland
  Potency: 44.6 mg/kg/day

## O=CNNc1nc(-c2ccc([N+](=O)[O-])o2)cs1
TD50_Rat_Note: TD50 is harmonic mean of more than one positive test, TargetSites_Rat_Female: ear Zymbals gland, hematopoietic system, kidney, large intestine, liver, mammary gland, small intestine
  Potency: 5.06 mg/kg/day

## CCC[C@@H]1O[C@@H]2C[C@H]3[C@@H]4CCC5=CC(=O)C=C[C@]5(C)[C@H]4[C@@H](O)C[C@]3(C)[C@]2(C(=O)CO)O1
  Potency: 0.291 mg/kg/day

## O=[N+]([O-])c1cccc2cccnc12
TD50_Rat_Note: TD50 is harmonic mean of more than one positive test, TargetSites_Rat_Female: stomach
  Potency: 9.82 mg/kg/day

## CC(=O)Nc1cccc2c1Cc1ccccc1-2
[1]
  outcome: inactive

## CCCCCCCCCCCC[N+](C)(C)[O-]
[1]
  outcome: inactive; no positive results

## CCN(CC)C(C)=O
TD50_Rat_Note: no positive results are statistically significant
  Potency: 8.85 mg/kg/day

## ClC1=C(Cl)C2(Cl)C3C(Cl)C=CC3C1(Cl)C2(Cl)Cl (stereo not drawn)
[1]
  outcome: inactive; no positive results

## Cc1csc(NNC=O)n1
[2]
  Potency: 14.4 mg/kg/day

## OC[C@@H](O)[C@@H](O)[C@H](O)[C@H](O)CO
[1]
  outcome: inactive; no positive results

## Cc1ccc(C)c(N)c1
  Potency: 152 mg/kg/day

## [K+]
TD50_Rat_Note: TD50 is harmonic mean of more than one positive test, TargetSites_Rat_Female: oral cavity
  Potency: 440 mg/kg/day

## CC(I)C1OCC(CO)O1 (stereo not drawn)
[1]
  Potency: 101 mg/kg/day

## CS(=O)(=O)OCCCNCCCOS(C)(=O)=O
[1]
  outcome: inactive; no positive results

## CC(O)CN(CCO)N=O (stereo not drawn)
TargetSites_Rat_Female: esophagus, liver, vascular system
  Potency: 1.02 mg/kg/day

## CC1CC(=O)O1 (stereo not drawn)
TargetSites_Rat_Female: stomach
  Potency: 13.8 mg/kg/day

## O=CNc1nc(-c2ccc([N+](=O)[O-])o2)cs1
TD50_Rat_Note: TD50 is harmonic mean of more than one positive test, harmonic mean of TD50 includes a value for upper 99% confidence li, TargetSites_Rat_Female: urinary bladder
  Potency: 4.25 mg/kg/day

## ClC1=C(Cl)[C@@]2(Cl)[C@@H]3[C@@H](Cl)[C@H](Cl)C[C@@H]3C1(Cl)C2(Cl)Cl
[1]
  outcome: inactive; no positive results

## CC[C@H](OC(C)=O)C(C[C@H](C)N(C)C)(c1ccccc1)c1ccccc1
TD50_Rat_Note: TD50 is harmonic mean of more than one positive test, TargetSites_Rat_Female: liver
  Potency: 68 mg/kg/day

## CCC1(c2ccccc2)C(=O)NC(=O)NC1=O
[1]
  outcome: inactive; no positive results

## CC1CN(/N=C/c2ccc([N+](=O)[O-])o2)C(=O)N1 (stereo not drawn)
[2]
  Potency: 5.34 mg/kg/day

## O=c1cc[nH]c(=O)[nH]1
TD50_Rat_Note: TD50 is harmonic mean of more than one positive test, greater than ten-fold variation among TD50 values for positive res, TargetSites_Rat_Female: urinary bladder
  Potency: 671 mg/kg/day

## Oc1cccc(O)c1
[1]
  outcome: inactive; no positive results

## S=C(NC1CCCCC1)NC1CCCCC1
[1]
  outcome: inactive; no positive results

## S=P(N1CC1)(N1CC1)N1CC1
TD50_Rat_Note: positive test results only by intraperitoneal or intravenous injection, TD50 is harmonic mean of more than one positive, TargetSites_Rat_Female: ear Zymbals gland
  Potency: 0.164 mg/kg/day

## CCCCCCCCCCCN(C)N=O
  Potency: 2.37 mg/kg/day

## O=c1cc[nH]c(=S)[nH]1
TD50_Rat_Note: TD50 is harmonic mean of more than one positive test, TargetSites_Rat_Female: thyroid gland
  Potency: 11.9 mg/kg/day

## F
[1]
  outcome: inactive; no positive results

## ClC(Cl)=C(Cl)C(Cl)=C(Cl)Cl
TD50_Rat_Note: TD50 is harmonic mean of more than one positive test, TargetSites_Rat_Female: kidney
  Potency: 65.8 mg/kg/day

## CCCCCN(N=O)C(=O)OCC
TargetSites_Rat_Female: esophagus, oral cavity
  Potency: 1.01 mg/kg/day

## COc1ccc(N)c(C)c1
TD50_Rat_Note: TD50 is harmonic mean of more than one positive test, TargetSites_Rat_Female: urinary bladder
  Potency: 470 mg/kg/day

## Nc1ccc(Oc2ccc(Cl)cc2)cc1
  Potency: 37.6 mg/kg/day

## C=CCOCC1CO1 (stereo not drawn)
[1]
  outcome: inactive; no positive results

## Nc1ccc(-c2ccccc2)cc1O
[1]
  outcome: inactive

## CC(O)CN(CC(C)O)N=O (stereo not drawn)
TD50_Rat_Note: TD50 is harmonic mean of more than one positive test, TargetSites_Rat_Female: esophagus, nasal cavity
  Potency: 0.846 mg/kg/day
